The results in this text go back to the supplement of paper PMC12463676, “Small-molecule dissolution of stress granules by redox modulation benefits ALS models” (Nature Chemical Biology, 2025).

Compound in one test: O=[As]([O-])(O)O.[K+] [potassium arsenate]
Kind of test: thermal stability z-score vs DMSO; higher = more thermally stabilized by treatment. Particulars: HeLa; arsenate concentration 1 mM. Here is the method:
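Cellular thermal proteome profiling in HeLa cells treated with 1 mM arsenate for 1 h (DMSO pretreatment), heated to ten temperatures (37-66.3 °C). Soluble protein was quantified by TMT mass spectrometry relative to DMSO controls; the thermal stability score was transformed to a z-score; mean of n = 3 experiments.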

Compound in a further test: NC(=O)CCCCC1CCSS1 [lipoamide]
The test is described as above. The following applies: HeLa, lipoamide concentration 100 µM. Here is the method:
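Cellular thermal proteome profiling in HeLa cells. Cells were treated with 100 µM lipoamide for 1 h, with or without 1 mM arsenate for a further 1 h, then heated to ten temperatures (37-66.3 °C), and soluble protein was quantified by TMT mass spectrometry relative to 0.1% DMSO controls. The thermal stability score (sum of log2 fold changes minus the abundance score) was transformed to a z-score; mean of n = 3 experiments.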

Setting [1] is: arsenate co-treatment: 1 mM arsenate 1 h.
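Further: each temperature applied for 3 min, abundance score taken as mean log2 fold change at the two lowest temperatures, z-score obtained by mean subtraction and division by SD.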

Sequence of UniProt Q9UJY4 (Q9UJY4 whole entry): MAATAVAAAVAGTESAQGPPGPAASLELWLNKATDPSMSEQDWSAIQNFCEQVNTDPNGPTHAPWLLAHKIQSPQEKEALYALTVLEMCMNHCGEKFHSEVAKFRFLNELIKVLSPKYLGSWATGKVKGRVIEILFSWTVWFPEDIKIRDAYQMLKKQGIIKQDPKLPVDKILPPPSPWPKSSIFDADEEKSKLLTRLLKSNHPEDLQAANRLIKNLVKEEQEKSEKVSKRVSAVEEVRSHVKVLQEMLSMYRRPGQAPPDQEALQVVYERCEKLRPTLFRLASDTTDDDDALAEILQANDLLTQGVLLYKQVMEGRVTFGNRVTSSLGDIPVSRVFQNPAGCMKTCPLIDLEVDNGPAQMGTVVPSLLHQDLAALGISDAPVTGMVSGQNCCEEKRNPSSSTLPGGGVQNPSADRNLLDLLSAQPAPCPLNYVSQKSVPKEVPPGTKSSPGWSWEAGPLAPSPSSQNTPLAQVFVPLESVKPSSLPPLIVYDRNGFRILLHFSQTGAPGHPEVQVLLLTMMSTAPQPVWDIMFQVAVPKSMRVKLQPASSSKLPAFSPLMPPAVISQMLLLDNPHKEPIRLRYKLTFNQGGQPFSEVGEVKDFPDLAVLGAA
Sequence of UniProt Q9NRW7 (Q9NRW7 whole entry): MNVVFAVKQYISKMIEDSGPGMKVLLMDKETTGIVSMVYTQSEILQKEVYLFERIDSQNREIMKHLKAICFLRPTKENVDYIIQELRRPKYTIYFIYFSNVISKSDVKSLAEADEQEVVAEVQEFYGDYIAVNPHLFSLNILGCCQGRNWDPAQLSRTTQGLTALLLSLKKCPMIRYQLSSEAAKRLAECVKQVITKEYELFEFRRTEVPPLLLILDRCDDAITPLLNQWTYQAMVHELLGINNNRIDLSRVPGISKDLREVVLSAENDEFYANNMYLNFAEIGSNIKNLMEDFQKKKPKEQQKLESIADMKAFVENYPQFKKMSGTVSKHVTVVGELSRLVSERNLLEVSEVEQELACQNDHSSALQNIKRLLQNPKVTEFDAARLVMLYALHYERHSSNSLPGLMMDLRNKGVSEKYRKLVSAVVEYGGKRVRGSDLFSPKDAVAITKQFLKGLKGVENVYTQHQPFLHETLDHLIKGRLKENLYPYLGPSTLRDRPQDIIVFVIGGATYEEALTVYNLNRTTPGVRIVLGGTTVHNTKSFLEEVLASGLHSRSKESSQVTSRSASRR
Sequence of UniProt Q9BXR0 (Q9BXR0 whole entry): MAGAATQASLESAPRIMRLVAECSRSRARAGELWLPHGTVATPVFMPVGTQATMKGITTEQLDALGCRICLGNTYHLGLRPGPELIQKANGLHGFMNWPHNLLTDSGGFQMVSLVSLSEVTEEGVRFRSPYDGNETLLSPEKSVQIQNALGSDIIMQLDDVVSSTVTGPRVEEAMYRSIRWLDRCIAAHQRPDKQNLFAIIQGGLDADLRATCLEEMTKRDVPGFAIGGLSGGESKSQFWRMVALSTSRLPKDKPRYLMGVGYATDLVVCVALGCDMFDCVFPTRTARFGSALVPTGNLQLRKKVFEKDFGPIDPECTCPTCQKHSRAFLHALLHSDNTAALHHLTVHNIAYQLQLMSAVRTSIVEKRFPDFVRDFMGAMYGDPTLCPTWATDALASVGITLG
Sequence of UniProt Q8TDH9 (Q8TDH9 whole entry): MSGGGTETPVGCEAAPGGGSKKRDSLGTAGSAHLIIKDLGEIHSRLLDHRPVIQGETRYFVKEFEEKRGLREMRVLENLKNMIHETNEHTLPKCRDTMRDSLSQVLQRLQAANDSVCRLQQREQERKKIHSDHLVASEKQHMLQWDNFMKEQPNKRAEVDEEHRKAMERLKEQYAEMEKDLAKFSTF
Sequence of UniProt Q504Q3 (Q504Q3 whole entry): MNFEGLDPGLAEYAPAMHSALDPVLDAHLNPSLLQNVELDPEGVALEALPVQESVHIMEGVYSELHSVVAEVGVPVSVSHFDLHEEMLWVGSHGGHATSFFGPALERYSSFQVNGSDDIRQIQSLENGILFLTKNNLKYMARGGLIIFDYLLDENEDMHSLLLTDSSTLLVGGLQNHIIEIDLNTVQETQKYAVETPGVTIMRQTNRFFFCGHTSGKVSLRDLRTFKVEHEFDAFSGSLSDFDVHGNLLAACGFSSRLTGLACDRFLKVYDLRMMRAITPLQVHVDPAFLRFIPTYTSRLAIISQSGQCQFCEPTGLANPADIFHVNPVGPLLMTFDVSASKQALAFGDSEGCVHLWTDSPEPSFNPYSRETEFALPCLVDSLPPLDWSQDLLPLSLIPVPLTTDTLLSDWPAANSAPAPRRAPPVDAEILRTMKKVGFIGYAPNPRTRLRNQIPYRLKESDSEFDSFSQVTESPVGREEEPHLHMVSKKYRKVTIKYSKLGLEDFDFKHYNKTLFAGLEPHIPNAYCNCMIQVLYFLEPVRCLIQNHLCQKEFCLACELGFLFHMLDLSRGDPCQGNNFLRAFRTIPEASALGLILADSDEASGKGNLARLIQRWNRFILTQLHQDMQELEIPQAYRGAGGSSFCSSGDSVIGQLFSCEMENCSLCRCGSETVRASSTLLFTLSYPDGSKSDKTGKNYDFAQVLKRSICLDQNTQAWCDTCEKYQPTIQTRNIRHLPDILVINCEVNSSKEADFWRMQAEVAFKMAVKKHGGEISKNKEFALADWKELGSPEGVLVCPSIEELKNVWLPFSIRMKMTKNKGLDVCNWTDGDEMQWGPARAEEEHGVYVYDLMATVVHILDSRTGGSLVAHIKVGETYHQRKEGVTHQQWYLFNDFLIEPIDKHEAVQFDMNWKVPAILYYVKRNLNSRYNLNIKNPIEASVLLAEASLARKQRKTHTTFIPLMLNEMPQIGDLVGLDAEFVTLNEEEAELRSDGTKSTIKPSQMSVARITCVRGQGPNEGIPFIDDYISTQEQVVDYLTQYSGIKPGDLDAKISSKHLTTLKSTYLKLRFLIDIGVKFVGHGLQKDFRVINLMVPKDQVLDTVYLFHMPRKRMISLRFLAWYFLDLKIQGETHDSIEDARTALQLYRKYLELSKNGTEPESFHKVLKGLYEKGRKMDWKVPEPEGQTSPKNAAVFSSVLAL
Sequence of UniProt Q8IYT2 (Q8IYT2 whole entry): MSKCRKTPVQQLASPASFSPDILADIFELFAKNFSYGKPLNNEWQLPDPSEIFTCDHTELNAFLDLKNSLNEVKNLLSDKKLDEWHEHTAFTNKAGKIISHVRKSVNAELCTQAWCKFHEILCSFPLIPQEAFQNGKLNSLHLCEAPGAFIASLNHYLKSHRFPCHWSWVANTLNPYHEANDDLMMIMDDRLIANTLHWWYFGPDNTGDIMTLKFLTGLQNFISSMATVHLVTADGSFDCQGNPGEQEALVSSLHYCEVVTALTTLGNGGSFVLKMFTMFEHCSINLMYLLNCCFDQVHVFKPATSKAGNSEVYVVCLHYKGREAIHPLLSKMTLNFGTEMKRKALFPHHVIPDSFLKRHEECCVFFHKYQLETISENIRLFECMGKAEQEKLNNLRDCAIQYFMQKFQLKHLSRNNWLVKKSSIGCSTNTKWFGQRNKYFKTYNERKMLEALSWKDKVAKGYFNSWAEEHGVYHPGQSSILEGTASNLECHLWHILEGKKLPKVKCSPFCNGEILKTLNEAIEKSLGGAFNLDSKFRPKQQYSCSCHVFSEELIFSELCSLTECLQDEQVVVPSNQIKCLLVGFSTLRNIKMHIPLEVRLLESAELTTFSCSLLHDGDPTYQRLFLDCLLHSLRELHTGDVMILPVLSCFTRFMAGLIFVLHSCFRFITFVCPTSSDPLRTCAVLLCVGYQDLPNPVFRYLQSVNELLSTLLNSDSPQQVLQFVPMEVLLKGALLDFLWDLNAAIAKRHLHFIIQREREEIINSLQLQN
Sequence of UniProt Q9BSF8 (Q9BSF8 whole entry): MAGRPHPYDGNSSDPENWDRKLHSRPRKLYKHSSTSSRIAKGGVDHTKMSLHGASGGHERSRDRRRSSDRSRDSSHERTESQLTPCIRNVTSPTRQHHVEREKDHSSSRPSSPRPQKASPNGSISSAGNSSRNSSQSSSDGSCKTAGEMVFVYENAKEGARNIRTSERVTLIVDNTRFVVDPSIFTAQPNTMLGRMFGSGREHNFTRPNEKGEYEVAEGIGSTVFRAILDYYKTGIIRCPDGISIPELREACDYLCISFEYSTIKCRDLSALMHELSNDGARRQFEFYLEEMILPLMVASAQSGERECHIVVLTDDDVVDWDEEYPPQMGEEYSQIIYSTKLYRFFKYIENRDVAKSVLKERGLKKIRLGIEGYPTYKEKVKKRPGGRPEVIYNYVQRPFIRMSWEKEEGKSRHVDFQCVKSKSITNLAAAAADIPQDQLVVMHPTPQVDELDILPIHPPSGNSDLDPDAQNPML
Sequence of UniProt O00560 (O00560 whole entry): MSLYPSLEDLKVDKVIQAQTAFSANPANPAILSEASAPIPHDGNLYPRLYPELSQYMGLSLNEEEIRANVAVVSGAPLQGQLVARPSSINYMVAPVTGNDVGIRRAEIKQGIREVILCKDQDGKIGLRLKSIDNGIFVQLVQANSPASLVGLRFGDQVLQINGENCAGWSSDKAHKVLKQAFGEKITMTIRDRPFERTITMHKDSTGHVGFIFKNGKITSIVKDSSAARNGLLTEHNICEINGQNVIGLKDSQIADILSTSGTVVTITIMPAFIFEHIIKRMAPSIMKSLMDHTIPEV
Sequence of UniProt Q9NUJ1 (Q9NUJ1 whole entry): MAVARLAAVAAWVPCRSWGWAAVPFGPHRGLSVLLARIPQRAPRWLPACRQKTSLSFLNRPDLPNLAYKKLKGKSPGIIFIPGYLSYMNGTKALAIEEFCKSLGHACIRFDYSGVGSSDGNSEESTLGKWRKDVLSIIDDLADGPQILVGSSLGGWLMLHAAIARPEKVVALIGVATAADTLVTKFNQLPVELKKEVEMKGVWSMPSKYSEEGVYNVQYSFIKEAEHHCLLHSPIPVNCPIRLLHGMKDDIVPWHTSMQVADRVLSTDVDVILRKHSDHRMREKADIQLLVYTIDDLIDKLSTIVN
Sequence of UniProt P51636 (P51636 whole entry): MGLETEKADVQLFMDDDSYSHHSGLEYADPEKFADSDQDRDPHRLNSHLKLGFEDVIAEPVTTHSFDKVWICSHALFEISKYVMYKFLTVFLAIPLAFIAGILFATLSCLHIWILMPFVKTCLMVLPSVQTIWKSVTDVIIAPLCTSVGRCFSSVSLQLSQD

For BLOC1S5 (UniProt Q8TDH9), the values for the thermal stability z-score in the test with potassium arsenate, in the test with lipoamide (setting [1]) and in the test with lipoamide (arsenate co-treatment: none) were 0.446, 0.19 and 0.0962, respectively.
Take MAGOH|MAGOHB: the thermal stability z-score was 0.0412 with potassium arsenate, 0.0953 in the test with lipoamide (setting [1]) and 0.171 in the test with lipoamide (arsenate co-treatment: none).
PRCP (UniProt P42785): the values for the thermal stability z-score with potassium arsenate, with lipoamide (setting [1]) and in the test with lipoamide (arsenate co-treatment: none) were 0.42, -0.242 and -0.33, respectively.
On the same counts, the results for CMTR2 (UniProt Q8IYT2) are -0.0808, 0.107 and 0.13.
Turning to HSPA1B|HSPA1A, the thermal stability z-score was -0.064 in the test with potassium arsenate, -0.148 with lipoamide (setting [1]) and 0.0496 with lipoamide (arsenate co-treatment: none).
On the same counts, the results for FAM65A (UniProt Q6ZS17) are -0.0314, 0.215 and 0.0539.
With CAV2 (UniProt P51636), the thermal stability z-score in the test with potassium arsenate is 1.51; with lipoamide (setting [1]), 1.26; with lipoamide (arsenate co-treatment: none) it was -0.268.
As to NOTCH2 (UniProt Q04721), the thermal stability z-score in the test with potassium arsenate was -0.309; with lipoamide (setting [1]) it was -1.45; in the test with lipoamide (arsenate co-treatment: none), -1.57.
For QTRT1 (UniProt Q9BXR0), in that order: -0.729, 0.739 and -1.03.
Regarding CS (UniProt O75390), the results for the thermal stability z-score in the test with potassium arsenate, in the test with lipoamide (setting [1]) and in the test with lipoamide (arsenate co-treatment: none) were 0.561, -0.341 and 0.0055, respectively.
Take SDCBP (UniProt O00560): the thermal stability z-score with potassium arsenate was determined as 0.364; with lipoamide (setting [1]), 0.541; with lipoamide (arsenate co-treatment: none), 0.425.
IFRD2 (UniProt Q12894): the figures for the thermal stability z-score with potassium arsenate, with lipoamide (setting [1]) and with lipoamide (arsenate co-treatment: none) were 3.33, 0.798 and 0.638, respectively.
For PAN2 (UniProt Q504Q3), in that order: -0.143, 0.0953 and -0.21.
On the same counts, the results for AP2A2 (UniProt O94973) are -0.337, -0.0644 and -0.149.
In the case of TOLLIP (UniProt Q9H0E2), the results for the thermal stability z-score with potassium arsenate, with lipoamide (setting [1]) and with lipoamide (arsenate co-treatment: none) were -0.313, 0.239 and 0.158, respectively.
Take ENTHD2 (UniProt Q96N21): the thermal stability z-score in the test with potassium arsenate is -0.479; with lipoamide (setting [1]), -0.00439; with lipoamide (arsenate co-treatment: none), -0.0659.
For MSMO1 (UniProt Q15800), the thermal stability z-score in the test with potassium arsenate is 0.343; with lipoamide (setting [1]), -1.28; in the test with lipoamide (arsenate co-treatment: none), -1.47.
In the case of VPS45 (UniProt Q9NRW7), the thermal stability z-score with potassium arsenate was 0.0668; in the test with lipoamide (setting [1]) it was 0.546; in the test with lipoamide (arsenate co-treatment: none), 0.434.
For HSPD1 (UniProt P10809), in that order: -0.432, -0.0897 and 0.0259.
For the target BCL7C (UniProt Q8WUZ0), the thermal stability z-score in the test with potassium arsenate worked out at 0.0252; with lipoamide (setting [1]), 0.0654; with lipoamide (arsenate co-treatment: none), 0.0122.
On the same counts, the results for NAA16 (UniProt Q6N069) are -0.173, 0.378 and 0.394.
For BTBD10 (UniProt Q9BSF8), in that order: -0.162, 0.00662 and 0.0899.
On the same counts, the results for STAT1 (UniProt P42224) are 0.502, -0.65 and -0.206.
As for DNAJC16 (UniProt Q9Y2G8), the thermal stability z-score was 0.00733 with potassium arsenate, -0.913 with lipoamide (setting [1]) and -2.01 with lipoamide (arsenate co-treatment: none).
On the same counts, the results for ABHD10 (UniProt Q9NUJ1) are -0.374, 0.377 and -0.241.
On to RBBP9 (UniProt O75884), for which the results for the thermal stability z-score with potassium arsenate, with lipoamide (setting [1]) and in the test with lipoamide (arsenate co-treatment: none) were 0.167, 0.308 and 0.162, respectively.
For the target GGA2 (UniProt Q9UJY4), the results for the thermal stability z-score with potassium arsenate, in the test with lipoamide (setting [1]) and with lipoamide (arsenate co-treatment: none) were -0.335, -0.076 and -0.0378, respectively.
